From patent publication EP2582674B1 (Cymabay Therapeutics, Inc., priority 2010, dated 2011)

Biological target: T1, human GPR120 (Homo sapiens, UniProt Q5NUL3)
T1 construct: host or cells: HEK293 cells co-expressing Gqi5
T1 sequence (Q5NUL3 1-361): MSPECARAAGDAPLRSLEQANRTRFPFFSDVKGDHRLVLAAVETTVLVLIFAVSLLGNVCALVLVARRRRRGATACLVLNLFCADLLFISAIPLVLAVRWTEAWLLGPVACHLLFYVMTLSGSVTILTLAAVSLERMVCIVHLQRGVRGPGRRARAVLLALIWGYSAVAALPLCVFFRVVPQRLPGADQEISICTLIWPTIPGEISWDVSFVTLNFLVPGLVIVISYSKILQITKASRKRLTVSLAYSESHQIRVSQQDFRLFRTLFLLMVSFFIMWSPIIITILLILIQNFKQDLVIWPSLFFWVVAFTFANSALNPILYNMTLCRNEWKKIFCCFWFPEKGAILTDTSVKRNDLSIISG
Test: Intracellular Ca2+ assay in human GPR120 stable cell line (FLIPR Calcium 4 dye, Flexstation)
Format: cell-based
Conditions: % activity at 2.5 µM compared to the maximal activity of the compound of Example 25 at 2.5 µM (=100%); HEK293 cells co-expressing Gqi5

SMILES	% Activity (Ex. 25 Reference Compound)
CC1(C)Cc2cc(F)cc(COc3c(F)cc(CC4CC4C(=O)O)cc3F)c2O1 (single isomer, unassigned) [Example 184B, 2-(3,5-difluoro-4-((5-fluoro-2,2-dimethyl-2,3-dihydrobenzofuran-7-yl)methoxy)benzyl)cyclopropanecarboxylic acid]	130.66%

Same assay, conditions: HEK293, % activity at 2.5 µM compared to the maximal activity of the compound of Example 25 at 2.5 µM (=100%); HEK293 cells co-expressing Gqi5; read-out: % Activity (Ex. 25 Reference Compound)

SMILES	activity at 2.5 µM
CC1(C)Cc2cc(F)cc(COc3ccc(CCCC(=O)O)cc3)c2O1 [Example 160, 4-(4-((5-fluoro-2,2-dimethyl-2,3-dihydrobenzofuran-7-yl)methoxy)phenyl)butanoic acid]	172%
CC1(C)Cc2cc(F)cc(COc3ccc(CCC(=O)O)c(OC(F)(F)F)c3)c2O1 [Example 136, 3-(4-((5-fluoro-2,2-dimethyl-2,3-dihydrobenzofuran-7-yl)methoxy)-2-(trifluoromethoxy)phenyl)propanoic acid]	141%
CC(Cc1cc(F)c(OCc2cc(Cl)cc3c2OC(C)C3(C)C)c(F)c1)C(=O)O (stereo not drawn) [Example 109, 3-(4-((5-chloro-2,3,3-trimethyl-2,3-dihydrobenzofuran-7-yl)methoxy)-3,5-difluorophenyl)-2-methylpropanoic acid]	72.4%
CC1(C)Cc2cc(Cl)cc(COc3cc(F)c(CCC(=O)O)c(F)c3)c2O1 [Example 54, 3-(4-((5-chloro-2,2-dimethyl-2,3-dihydrobenzofuran-7-yl)methoxy)-2,6-difluorophenyl)propanoic acid]	139%
CC1(C)Cc2c(ccc(F)c2COc2c(F)cc(C3CC3C(=O)O)cc2F)O1 (stereo not drawn) [Example 99, 2-(3,5-difluoro-4-((5-fluoro-2,2-dimethyl-2,3-dihydrobenzofuran-4-yl)methoxy)phenyl)cyclopropanecarboxylic acid]	102%
CC1(C)Cc2cc(Cl)cc(COc3ccc4c(c3)CC(C(=O)O)C4)c2O1 (stereo not drawn) [Example 112, 5-((5-chloro-2,2-dimethyl-2,3-dihydrobenzofuran-7-yl)methoxy)-2,3-dihydro-1H-indene-2-carboxylic acid]	115%
CC(Cc1ccc(NC(=O)c2cc(F)cc3c2OC(C)(C)C3)cc1)C(=O)O (stereo not drawn) [Example 68, 3-(4-(5-fluoro-2,2-dimethyl-2,3-dihydrobenzofuran-7-carboxamido)phenyl)-2-methylpropanoic acid]	69%
COc1cc(OCc2cc(Cl)cc3c2OC2(CCCC2)C3)ccc1CCC(=O)O [Example 194, 3-(4-((5-chloro-3H-spiro[benzofuran-2,1'-cyclopentane]-7-yl)methoxy)-2-methoxyphenyl)propanoic acid]	148%
CC(Cc1ccc(OCc2cc(Cl)cc3c2OCC3(C)C)cc1)C(=O)O (stereo not drawn) [Example 148, 3-(4-((5-chloro-3,3-dimethyl-2,3-dihydrobenzofuran-7-yl)methoxy)phenyl)-2-methylpropanoic acid]	114%
C[C@H](Cc1ccc(OCc2cc(Cl)cc3c2OC(C)(C)C3)c(C(F)(F)F)c1)C(=O)O [Example 143, (R)-3-(4-((5-chloro-2,2-dimethyl-2,3-dihydrobenzofuran-7-yl)methoxy)-3-(trifluoromethyl)phenyl)-2-methylpropanoic acid]	90.6%
CC1(C)Cc2cc(F)cc(COc3cc(Cl)c(CCC(=O)O)c(Cl)c3)c2O1 [Example 197, 3-(2,6-dichloro-4-((5-fluoro-2,2-dimethyl-2,3-dihydrobenzofuran-7-yl)methoxy)phenyl)propanoic acid]	151%
CC(Cc1cccc(OCc2cc(Cl)cc3c2OC(C)(C)C3)c1)C(=O)O (stereo not drawn) [Example 251, 3-(3-((5-chloro-2,2-dimethyl-2,3-dihydrobenzofuran-7-yl)methoxy)phenyl)-2-methylpropanoic acid]	61.1%
Cc1cc(OCc2cc(F)cc3c2OC(C)(C)C3)c(F)cc1CCC(=O)O [Example 214, 3-(5-fluoro-4-((5-fluoro-2,2-dimethyl-2,3-dihydrobenzofuran-7-yl)methoxy)-2-methylphenyl)propanoic acid]	143%

Second part, the molecule after the results:

activity at 2.5 µM	SMILES
98.5%	CC1(C)Cc2c(COc3ccc4c(c3)CCC4CC(=O)O)ccc(F)c2O1 (stereo not drawn) [Example 94, 2-(5-((7-fluoro-2,2-dimethyl-2,3-dihydrobenzofuran-4-yl)methoxy)-2,3-dihydro-1H-inden-1-yl)acetic acid]
152%	CC1(C)Cc2cc(F)cc(COc3ccc4c(c3)CC[C@H]4CC(=O)O)c2O1 [Example 175, (S)-2-(5-((5-fluoro-2,2-dimethyl-2,3-dihydrobenzofuran-7-yl)methoxy)-2,3-dihydro-1H-inden-1-yl)acetic acid]
118%	CC1(C)Cc2cc(Cl)cc(COc3ccc(SCC(=O)O)cc3)c2O1 [Example 59, 2-((4-((5-chloro-2,2-dimethyl-2,3-dihydrobenzofuran-7-yl)methoxy)phenyl)thio)-acetic acid]
42.7%	CC(C)C(CC(=O)O)c1ccc(OCc2cc(Cl)cc3c2OC(C)(C)C3)cc1 (stereo not drawn) [Example 266, 3-(4-((5-chloro-2,2-dimethyl-2,3-dihydrobenzofuran-7-yl)methoxy)phenyl)-4-methylpentanoic acid]
111%	Cc1cc(OCc2cc(F)cc3c2OC(C)(C)C3)c(C)cc1CCC(=O)O [Example 206, 3-(4-((5-fluoro-2,2-dimethyl-2,3-dihydrobenzofuran-7-yl)methoxy)-2,5-dimethylphenyl)propanoic acid]
3.85%	CC(Cc1ccc(OCc2cc(Cl)cc3c2OC(C)(C)C3=O)c(C(F)(F)F)c1)C(=O)O (stereo not drawn) [Example 79, 3-(4-((5-chloro-2,2-dimethyl-3-oxo-2,3-dihydrobenzofuran-7-yl)methoxy)-3-(trifluoromethyl)phenyl)-2-methylpropanoic acid]
137%	CC1(C)Cc2cc(F)cc(COc3ccc4c(CC(=O)O)coc4c3)c2O1 [Example 262, 2-(6-((5-fluoro-2,2-dimethyl-2,3-dihydrobenzofuran-7-yl)methoxy)benzofuran-3-yl)acetic acid]
104%	CC1(C)Cc2cc(F)cc(COc3ccc(C4CC4C(=O)O)cc3)c2O1 (stereo not drawn) [Example 131A, 2-(4-((5-fluoro-2,2-dimethyl-2,3-dihydrobenzofuran-7-yl)methoxy)phenyl) cyclopropanecarboxylic acid]
103%	CC1(C)Cc2cc(F)cc(COc3ccc(CC(=O)O)cc3)c2O1 [Example 133, 2-(4-((5-fluoro-2,2-dimethyl-2,3-dihydrobenzofuran-7-yl)methoxy)phenyl)acetic acid]

Same assay, conditions: HEK293, % activity at 5 µM compared to the maximal activity of GW9508 at 6.7 µM (=100%); HEK293 cells co-expressing Gqi5; read-out: %Activity (GW9508 Reference Compound)

SMILES	activity at 5 µM
CC(Cc1cc(F)c(OCc2cccc3c2OC(C)C3C)c(F)c1)C(=O)O (stereo not drawn) [Example 40, 3-(4-((2,3-dimethyl-2,3-dihydrobenzofuran-7-yl)methoxy)-3,5-difluorophenyl)-2-methylpropanoic acid]	95.3%
CC(Cc1cc(F)c(OCc2cccc3c2OCC3)c(F)c1)C(=O)O (stereo not drawn) [Example 3, 3-(4-((2,3-dihydrobenzofuran-7-yl)methoxy)-3,5-difluorophenyl)-2-methylpropanoic acid]	124%
CC(Cc1ccc(OCc2cc(Cl)cc3c2OC(C)(C)C3)cc1Cl)C(=O)O (stereo not drawn) [Example 26, 3-(2-chloro-4-((5-chloro-2,2-dimethyl-2,3-dihydrobenzofuran-7-yl)methoxy)phenyl)-2-methylpropanoic acid]	164%
CC(Cc1ccc(OCc2cccc3c2CC(C)(C)O3)cc1)C(=O)O (stereo not drawn) [Example 17, 3-(4-((2,2-dimethyl-2,3-dihydrobenzofuran-4-yl)methoxy)phenyl)-2-methylpropanoic acid]	72.2%
Cc1cc(COc2ccc(CC(C)C(=O)O)cc2)c2c(c1)CC(C)(C)O2 (stereo not drawn) [Example 4, 2-methyl-3-(4-((2,2,5-trimethyl-2,3-dihydrobenzofuran-7-yl)methoxy)phenyl)propanoic acid]	111%
CC(Cc1ccc(OCc2ccc(C(F)(F)F)c3c2OC(C)(C)C3)cc1)C(=O)O (stereo not drawn) [Example 34, 3-(4-((2,2-dimethyl-4-(trifluoromethyl)-2,3-dihydrobenzofuran-7-yl)methoxy)phenyl)-2-methylpropanoic acid]	118%
CC(Cc1ccc(OCc2cc(Cl)cc3c2OC(C)(C)C3)c(Cl)c1)C(=O)O (stereo not drawn) [Example 12, 3-(3-chloro-4-((5-chloro-2,2-dimethyl-2,3-dihydrobenzofuran-7-yl)methoxy)phenyl)-2-methylpropanoic acid]	116%
CC(Cc1ccc(OCc2ccc(F)c3c2OC(C)(C)C3)cc1)C(=O)O (stereo not drawn) [Example 30, 3-(4-((4-fluoro-2,2-dimethyl-2,3-dihydrobenzofuran-7-yl)methoxy)phenyl)-2-methylpropanoic acid]	177%

Same assay, conditions: eight concentrations from 0.00001 to 20 µM; changes (Max-Min) of fluorescence intensity

SMILES	EC50
CC(CCc1ccc(OCc2cc(Cl)cc3c2OC(C)(C)C3)cc1)C(=O)O (stereo not drawn) [Example 172, 4-(4-((5-chloro-2,2-dimethyl-2,3-dihydrobenzofuran-7-yl)methoxy)phenyl)-2-methylbutanoic acid]	≤ 1 µM
CC(Cc1ccc(OCc2ccc(C(F)(F)F)c3c2OC(C)(C)C3)cc1)C(=O)O (stereo not drawn) [Example 34, 3-(4-((2,2-dimethyl-4-(trifluoromethyl)-2,3-dihydrobenzofuran-7-yl)methoxy)phenyl)-2-methylpropanoic acid]	> 10 µM
CC(Cc1cccc(OCc2cc(Cl)cc3c2OC(C)(C)C3)c1)C(=O)O (stereo not drawn) [Example 251, 3-(3-((5-chloro-2,2-dimethyl-2,3-dihydrobenzofuran-7-yl)methoxy)phenyl)-2-methylpropanoic acid]	1 to 10 µM

Further lines, results first:

EC50	SMILES
1 to 10 µM	CC(CC(=O)O)Cc1ccc(OCc2cc(Cl)cc3c2OC(C)(C)C3)cc1 (stereo not drawn) [Example 183, 4-(4-((5-chloro-2,2-dimethyl-2,3-dihydrobenzofuran-7-yl)methoxy)phenyl)-3-methylbutanoic acid]
1 to 10 µM	CC1(C)Cc2cc(F)cc(COc3ccc(CC(=O)O)cc3)c2O1 [Example 133, 2-(4-((5-fluoro-2,2-dimethyl-2,3-dihydrobenzofuran-7-yl)methoxy)phenyl)acetic acid]
